Reference: the supplement of paper PMC10307832

What was measured:
Test in all cases: relative viability (nuclei count vs DMSO), 5 days (fraction); higher = more cells survive
[1] = system: NCI-H1395
Procedure, shortened: (§1)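 Lung cancer cell lines were seeded in 1536-well plates and dosed by pin tool the next day, with either a single drug or a fixed anchor-drug dose combined with five library-drug doses (not always all listed) spaced in √10 steps. Five days later, one step fixed the cells and stained their nuclei (final 0.05% Triton X-100, 1% formaldehyde, 1 ug/ml Hoechst), and nuclei were counted on 4× images. Relative viability is the nuclei count in treated wells divided by the count in vehicle wells, and each value is the median of duplicate plates.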

[2] = system: NCI-H1793
Procedure, shortened: as §1

[3] = system: EMC-BAC-2
Procedure, shortened: as §1

[4] = system: UMC-11
Procedure, shortened: as §1

[5] = system: NCI-H2405
Procedure, shortened: as §1

[6] = system: NCI-H1915
Procedure, shortened: as §1

[7] = system: NCI-H1792
Procedure, shortened: as §1

[8] = system: RERF-LC-KJ
Procedure, shortened: as §1

[9] = system: LCLC-103H
Procedure, shortened: as §1

[10] = system: NCI-H1437
Procedure, shortened: as §1

[11] = system: NCI-H2342
Procedure, shortened: as §1

[12] = system: NCI-H2023
Procedure, shortened: as §1

[13] = system: NCI-H1651
Procedure, shortened: as §1

[14] = system: 201T
Procedure, shortened: as §1

[15] = system: SK-LU-1
Procedure, shortened: as §1

[16] = system: NCI-H1975
Procedure, shortened: as §1

[17] = system: ABC-1
Procedure, shortened: as §1

[18] = system: LOU-NH91
Procedure, shortened: as §1

[19] = system: HCC-78
Procedure, shortened: as §1

[20] = system: NCI-H23
Procedure, shortened: as §1

[21] = system: NCI-H647
Procedure, shortened: as §1

[22] = system: EPLC-272H
Procedure, shortened: as §1

[23] = system: NCI-H661
Procedure, shortened: as §1

## CCCCCCCCCCCC1=C(O)C(=O)C=C(O)C1=O [Embelin] + N=C(N)NC(=N)NCCc1ccccc1 [Phenformin] (partner 250 µM)
[1]; first compound 0.08 µM
  relative viability: 0.46
[1]; first compound 0.8 µM
  relative viability: 0.495
[1]; first compound 2.53 µM
  relative viability: 0.474
[1]; first compound 8 µM
  relative viability: 0.395
[2]; first compound 0.08 µM
  relative viability: 0.355
[2]; first compound 0.8 µM
  relative viability: 0.42
[2]; first compound 2.53 µM
  relative viability: 0.473
[2]; first compound 8 µM
  relative viability: 0.352
[3]; first compound 0.08 µM
  relative viability: 0.56
[3]; first compound 0.8 µM
  relative viability: 0.669
[3]; first compound 2.53 µM
  relative viability: 0.471
[3]; first compound 8 µM
  relative viability: 0.504
[4]; first compound 0.08 µM
  relative viability: 0.33
[4]; first compound 0.8 µM
  relative viability: 0.339
[4]; first compound 2.53 µM
  relative viability: 0.323
[4]; first compound 8 µM
  relative viability: 0.314
[5]; first compound 0.08 µM
  relative viability: 0.408
[5]; first compound 0.8 µM
  relative viability: 0.445
[5]; first compound 2.53 µM
  relative viability: 0.367
[5]; first compound 8 µM
  relative viability: 0.341
[6]; first compound 0.08 µM
  relative viability: 0.382
[6]; first compound 0.8 µM
  relative viability: 0.382
[6]; first compound 2.53 µM
  relative viability: 0.364
[6]; first compound 8 µM
  relative viability: 0.411
[7]; first compound 0.8 µM
  relative viability: 0.424
[7]; first compound 2.53 µM
  relative viability: 0.271
[7]; first compound 8 µM
  relative viability: 0.218
[8]; first compound 0.08 µM
  relative viability: 0.431
[8]; first compound 0.8 µM
  relative viability: 0.461
[8]; first compound 2.53 µM
  relative viability: 0.418
[8]; first compound 8 µM
  relative viability: 0.356
[9]; first compound 0.08 µM
  relative viability: 0.337
[9]; first compound 0.8 µM
  relative viability: 0.343
[9]; first compound 2.53 µM
  relative viability: 0.367
[9]; first compound 8 µM
  relative viability: 0.286
[10]; first compound 0.08 µM
  relative viability: 0.4
[10]; first compound 0.8 µM
  relative viability: 0.324
[10]; first compound 2.53 µM
  relative viability: 0.298
[10]; first compound 8 µM
  relative viability: 0.243
[11]; first compound 0.08 µM
  relative viability: 0.594
[11]; first compound 0.8 µM
  relative viability: 0.551
[11]; first compound 2.53 µM
  relative viability: 0.701
[11]; first compound 8 µM
  relative viability: 0.516
[12]; first compound 0.08 µM
  relative viability: 0.383
[12]; first compound 0.8 µM
  relative viability: 0.469
[12]; first compound 2.53 µM
  relative viability: 0.418
[12]; first compound 8 µM
  relative viability: 0.327
[13]; first compound 0.08 µM
  relative viability: 0.346
[13]; first compound 0.8 µM
  relative viability: 0.412
[13]; first compound 2.53 µM
  relative viability: 0.361
[13]; first compound 8 µM
  relative viability: 0.321
[14]; first compound 0.08 µM
  relative viability: 0.432
[14]; first compound 0.8 µM
  relative viability: 0.49
[14]; first compound 2.53 µM
  relative viability: 0.482
[14]; first compound 8 µM
  relative viability: 0.385
[15]; first compound 0.08 µM
  relative viability: 0.608
[15]; first compound 0.8 µM
  relative viability: 0.624
[15]; first compound 2.53 µM
  relative viability: 0.534
[15]; first compound 8 µM
  relative viability: 0.365
[16]; first compound 0.08 µM
  relative viability: 0.445
[16]; first compound 0.8 µM
  relative viability: 0.413
[16]; first compound 2.53 µM
  relative viability: 0.405
[16]; first compound 8 µM
  relative viability: 0.384
[17]; first compound 0.08 µM
  relative viability: 0.251
[17]; first compound 0.8 µM
  relative viability: 0.237
[17]; first compound 2.53 µM
  relative viability: 0.256
[17]; first compound 8 µM
  relative viability: 0.194
[18]; first compound 0.08 µM
  relative viability: 0.757
[18]; first compound 0.8 µM
  relative viability: 0.895
[18]; first compound 2.53 µM
  relative viability: 0.566
[18]; first compound 8 µM
  relative viability: 0.492
[19]; first compound 0.08 µM
  relative viability: 0.661
[19]; first compound 0.8 µM
  relative viability: 0.729
[19]; first compound 2.53 µM
  relative viability: 0.761
[19]; first compound 8 µM
  relative viability: 0.929
[20]; first compound 0.08 µM
  relative viability: 0.771
[20]; first compound 0.8 µM
  relative viability: 0.753
[20]; first compound 2.53 µM
  relative viability: 0.882
[20]; first compound 8 µM
  relative viability: 0.693
[21]; first compound 0.08 µM
  relative viability: 0.632
[21]; first compound 0.8 µM
  relative viability: 0.721
[21]; first compound 2.53 µM
  relative viability: 0.546
[21]; first compound 8 µM
  relative viability: 0.472
[22]; first compound 0.08 µM
  relative viability: 0.307
[22]; first compound 0.8 µM
  relative viability: 0.288
[22]; first compound 2.53 µM
  relative viability: 0.288
[22]; first compound 8 µM
  relative viability: 0.288
[23]; first compound 0.08 µM
  relative viability: 0.287
[23]; first compound 0.8 µM
  relative viability: 0.312
[23]; first compound 2.53 µM
  relative viability: 0.276
[23]; first compound 8 µM
  relative viability: 0.261

## CCCCCCCCCCCC1=C(O)C(=O)C=C(O)C1=O [Embelin] + Nc1ncn([C@H]2C[C@H](O)[C@@H](CO)O2)c(=O)n1 [Decitabine] (partner 2 µM)
[1]; first compound 0.08 µM
  relative viability: 0.712
[1]; first compound 0.8 µM
  relative viability: 0.872
[1]; first compound 2.53 µM
  relative viability: 0.699
[1]; first compound 8 µM
  relative viability: 0.698
[2]; first compound 0.08 µM
  relative viability: 0.586
[2]; first compound 0.8 µM
  relative viability: 0.625
[2]; first compound 2.53 µM
  relative viability: 0.505
[2]; first compound 8 µM
  relative viability: 0.549
[3]; first compound 0.08 µM
  relative viability: 0.945
[3]; first compound 0.8 µM
  relative viability: 1.01
[3]; first compound 2.53 µM
  relative viability: 0.958
[3]; first compound 8 µM
  relative viability: 0.955
[4]; first compound 0.08 µM
  relative viability: 0.616
[4]; first compound 0.8 µM
  relative viability: 0.608
[4]; first compound 2.53 µM
  relative viability: 0.631
[4]; first compound 8 µM
  relative viability: 0.553
[5]; first compound 0.08 µM
  relative viability: 0.764
[5]; first compound 0.8 µM
  relative viability: 0.89
[5]; first compound 2.53 µM
  relative viability: 0.738
[5]; first compound 8 µM
  relative viability: 0.703
[6]; first compound 0.08 µM
  relative viability: 0.265
[6]; first compound 0.8 µM
  relative viability: 0.241
[6]; first compound 2.53 µM
  relative viability: 0.263
[6]; first compound 8 µM
  relative viability: 0.264
[7]; first compound 0.08 µM
  relative viability: 0.603
[7]; first compound 0.8 µM
  relative viability: 0.595
[7]; first compound 2.53 µM
  relative viability: 0.615
[7]; first compound 8 µM
  relative viability: 0.519
[8]; first compound 0.08 µM
  relative viability: 0.775
[8]; first compound 0.8 µM
  relative viability: 0.652
[8]; first compound 2.53 µM
  relative viability: 0.774
[8]; first compound 8 µM
  relative viability: 0.514
[9]; first compound 0.08 µM
  relative viability: 0.754
[9]; first compound 0.8 µM
  relative viability: 0.755
[9]; first compound 2.53 µM
  relative viability: 0.737
[9]; first compound 8 µM
  relative viability: 0.718
[10]; first compound 0.08 µM
  relative viability: 0.541
[10]; first compound 0.8 µM
  relative viability: 0.623
[10]; first compound 2.53 µM
  relative viability: 0.568
[10]; first compound 8 µM
  relative viability: 0.41
[11]; first compound 0.08 µM
  relative viability: 0.71
[11]; first compound 0.8 µM
  relative viability: 0.722
[11]; first compound 2.53 µM
  relative viability: 0.842
[11]; first compound 8 µM
  relative viability: 0.741
[12]; first compound 0.08 µM
  relative viability: 0.249
[12]; first compound 0.8 µM
  relative viability: 0.234
[12]; first compound 2.53 µM
  relative viability: 0.247
[12]; first compound 8 µM
  relative viability: 0.155
[13]; first compound 0.08 µM
  relative viability: 0.634
[13]; first compound 0.8 µM
  relative viability: 0.67
[13]; first compound 2.53 µM
  relative viability: 0.867
[13]; first compound 8 µM
  relative viability: 0.659
[14]; first compound 0.08 µM
  relative viability: 0.82
[14]; first compound 0.8 µM
  relative viability: 0.884
[14]; first compound 2.53 µM
  relative viability: 0.853
[14]; first compound 8 µM
  relative viability: 0.831
[15]; first compound 0.08 µM
  relative viability: 0.617
[15]; first compound 0.8 µM
  relative viability: 0.683
[15]; first compound 2.53 µM
  relative viability: 0.709
[15]; first compound 8 µM
  relative viability: 0.641
[16]; first compound 0.08 µM
  relative viability: 0.377
[16]; first compound 0.8 µM
  relative viability: 0.432
[16]; first compound 2.53 µM
  relative viability: 0.37
[16]; first compound 8 µM
  relative viability: 0.586
[17]; first compound 0.08 µM
  relative viability: 1.02
[17]; first compound 0.8 µM
  relative viability: 1.11
[17]; first compound 2.53 µM
  relative viability: 1.04
[17]; first compound 8 µM
  relative viability: 1.12
[18]; first compound 0.08 µM
  relative viability: 0.825
[18]; first compound 0.8 µM
  relative viability: 0.893
[18]; first compound 2.53 µM
  relative viability: 0.852
[18]; first compound 8 µM
  relative viability: 0.801
[19]; first compound 0.08 µM
  relative viability: 0.739
[19]; first compound 0.8 µM
  relative viability: 0.751
[19]; first compound 2.53 µM
  relative viability: 0.71
[19]; first compound 8 µM
  relative viability: 0.675
[20]; first compound 0.08 µM
  relative viability: 0.258
[20]; first compound 0.8 µM
  relative viability: 0.37
[20]; first compound 2.53 µM
  relative viability: 0.329
[20]; first compound 8 µM
  relative viability: 0.29
[21]; first compound 0.08 µM
  relative viability: 0.454
[21]; first compound 0.8 µM
  relative viability: 0.379
[21]; first compound 2.53 µM
  relative viability: 0.488
[21]; first compound 8 µM
  relative viability: 0.277
[22]; first compound 0.08 µM
  relative viability: 0.363
[22]; first compound 0.8 µM
  relative viability: 0.401
[22]; first compound 2.53 µM
  relative viability: 0.355
[22]; first compound 8 µM
  relative viability: 0.367
[23]; first compound 0.08 µM
  relative viability: 0.565
[23]; first compound 0.8 µM
  relative viability: 0.614
[23]; first compound 2.53 µM
  relative viability: 0.649
[23]; first compound 8 µM
  relative viability: 0.541
